The subject of one series is NHLH2 3′UTR. The series is described as follows: Luciferase reporter assay, full-length 3′UTR. The series is classed as cell-based. The conditions noted are these: miR-199b-5p over-expression in Daoy cells. Here is the method: (§1) To determine the activity of miR-199b-5p on repression of the luciferase-3′UTR fused constructs, the pREYZO-miR-199b-5p construct and the pRL-CMV-3′UTR target construct were co-transfected into HEK293 cells at a ratio of 10:1, using the Polyfect reagent (Qiagen) together with the pGL3 basic vector, in the absence and presence of 2-OM (400 nM). Luciferase activities were analysed using a Dual Luciferase Reporter Assay system (Promega, Madison, Wis.).
(In general: In a reporter assay the amount or activity of a reporter protein is the signal.)

For a further series, the system named is cyclin L1 3′UTR. The series is described as follows: Luciferase reporter assay, full-length 3′UTR. The format is cell-based. The note with it: miR-199b-5p over-expression in Daoy cells. Here is the method:
as §1

Another series relates to Nanog 3′UTR. Description: Luciferase reporter assay, full-length 3′UTR. The format is cell-based. The conditions noted are these: miR-199b-5p over-expression in Daoy cells. Here is the method: as §1
Series [1] relates to Daoy cell side population. Description: Side population FACS (Hoechst 33342 exclusion). The series is classed as cell-based, human. Here is the method: The flow cytometry analysis of S-phase fractions and cell-cycle kinetics were carried out using a FACSCalibur (Becton Dickinson, San Jose, Calif.) using CELL Quest version 3.3 software. The CD133 studies were carried out using the same instrument, with antibodies from Miltenyi Biotec (Auburn, Calif.), according to the manufacturer instructions. In brief, the cells were blocked in Fc receptor blocking reagent and incubated with an anti-CD133/1 (AC133)-phycoerythrin antibody (Miltenyi Biotec), for 10 min in the dark at 4° C. The cells were then washed and resuspended in PBS. Cells expressing higher levels of CD133 than the immunoglobulin G (IgG) controls were considered positive. For analyses of the side populations, cells […] were incubated with Hoechst 33342 (5 μmol/L; Sigma) for 90 min at 37° C. in EMEM containing 2% FBS. To ensure the correct identification of the side population cells, the cells were incubated as above with the addition of 50 μM verapamil (Sigma).

For series [2], the system named is Daoy cells. The series is described as follows: s.c. flank xenograft with bioluminescence imaging. The format is in vivo, athymic nude/nude mice. Here is the method: Stable Daoy cell clones were generated by transfecting a luciferase-expressing vector (the firefly luciferase gene cloned in the plentiV5 vector; Invitrogen) into the stable 199bSC1 clone or into the control empty-vector clone. Then 100,000 viable 199b-Luc1 and Ctl-Luc-4 cells were mixed with a 1:1 PBS:matrigel solution (BD Biosciences, San Jose, Calif.). Six-week-old female athymic mice were anesthetised using avertin (Sigma) as a 3% solution in tert-amyl alcohol (Fisher), at a dose of 3 mg per 10 g body weight. The mice were injected s.c. with a total volume of 0.1 mL of matrigel PBS cell suspension, into each flank. The mice were imaged after the implantation of the cells, with tumor growth monitored by weekly bioluminescence acquisitions (BLI) using an MS 3D Illumina Imaging System (Xenogen Corp. Alameda, Calif.). For the acquisitions, the mice were […] with 100 μL D-luciferin (15 mg/mL stock) per 10 g body weight, and imaged for 30 s, 10 min after luciferin injection; four acquisitions per mouse were made (ventral, dorsal and each flank). To quantify the bioluminescence, the integrated fluxes of photons (photons per s) within each area of interest were determined using the Living Images Software Package 3.0 (Xenogen-Caliper). The emission data from the start of tumor growth were collected for at least 6 weeks, and then were normalized to the bioluminescence on the injection day. Calliper measurements of tumor sizes were made weekly, along the long and short axes, and estimations of their volumes were made using the formula: width2×length×0.52.

In series [3] the test system is Daoy cells. The series is described as follows: Expression of differentiation and proliferation markers (real-time PCR, Western blot). The format is cell-based, human. Here is the method: Total RNA was extracted from the cell lines using the Trizol reagent (Invitrogen). Synthesis of cDNA from total RNA (4 μg) was performed using a Super Script II First Strand Kit (Invitrogen). Real-time quantitative PCR was performed using standard protocols with an Applied Biosystems ABI PRISM 7900HT Sequence Detection system. To calculate the relative gene expression of the miR-199b-5p precursor, the relative amounts of each pre-miRNA were normalized to U6 miRNA; the other genes were normalized using the β-actin gene. Real-time PCR primers for each gene were designed using Primer Express software version 2.0 (Applied Biosystems). The primer sequences are available upon request.
(§2) Thirty μg cytosolic or nuclear lysates were loaded onto 12% polyacrilamide gels, and blotted onto polyvinylidene difluoride membranes (PVDF; BioRad, Milan, Italy). The membranes were then incubated with anti-HES1 (kind gift of Dr. Tetsuo Sudo TORAY Industries, Tebiro Kamakura, Japan), a polyclonal rabbit antibody (1:500), an anti-GSK3-β (B&D Bioscience) monoclonal antibody (1:2500), an anti-c-Myc polyclonal rabbit antibody (1:200) (Santa Cruz Biotechnology, Santa Cruz, Calif., USA), an anti-GABRA6 antibody (Santa Cruz Biotechnology, Santa Cruz, USA) (1:200), an anti-MATH3 antibody (Santa Cruz Biotechnology, Santa Cruz, USA) (1:200) and an anti-cyclin D1 (1:200) polyclonal rabbit antibody (Cell Signaling). An anti-β-actin antibody (1:1.000) (Sigma) was used as the control for equal loading of cytosolic lysates and a polyclonal anti-β-laminin antibody (1:50) (Santa Cruz Biotechnology, Santa Cruz, Calif., USA) for equal loading of nuclear lysates.
Background: In qPCR the cycle at which signal appears reflects the starting amount.

The test system of a further series is GSK3-β. Description: Western blotting of GSK3-β. The conditions noted are these: stable 199bSC1 clone. The series is classed as cell-based, human. Here is the method: as §2
Where [4] appears, read: Western blot, stable 199bSC1 clone.

These results are taken from patent US9017938B2, “Use of microrna-199b-5p in medical and diagnostic field” (Advanced Accelerator Applications, priority 2009, dated 2015).

For “miR-199b-5p: mature microRNA CCCAGUGUUUAGACUAUCUGUUC (SEQ ID NO:11); over-expressed from pre-miR-199b construct, e.g. stable Daoy clones 199bSC1, 199bMC1 (listed as RNA, chemistry not fully specified)”, in the series with NHLH2 3′UTR, the “down-regulation of reporter carrying NHLH2 3′UTR” value is reported as “did not detect any down-regulatory effects”. Besides, in the series with cyclin L1 3′UTR, the “down-regulation of reporter carrying cyclin L1 3′UTR” value is listed as “did not detect any down-regulatory effects”. In addition, the “down-regulation of reporter carrying Nanog 3′UTR” value in the series with Nanog 3′UTR is recorded as “did not detect any down-regulatory effects”. In addition, the “fraction of SP cells” value in series [1] (stable 199bMC1 clone (Daoy cells 5.2%)) is given as 0.4%. In addition, the “fraction of SP cells” value in series [1] (stable 199bSC1 clone (Daoy cells 5.2%)) was 0.2%. For the same substance, the “tumor volumes, control flanks vs miR-199b-5p flanks” value in the series with Daoy cells [2] (199b-Luc1 vs Ctl-Luc-4 Daoy clones) was “significant difference in tumor volumes”. For the same substance, in the series with Daoy cells [2] (after nine weeks), the “mice with statistically significant difference in bioluminescence signal between control and miR-199b-5p sides” value is listed as “four out of the five”. Further, the tumors detectable macroscopically in the series with Daoy cells [2] (s.c. injection of Daoy cells over-expressing miR-199b-5p, nine weeks (control cells 5/5)) is recorded as 3/5. Besides, in the series with Daoy cells [3] (setting [4]), the GABRA6 protein entry is reported as “up-regulated”, the MATH3 protein entry is recorded as “up-regulated”, the c-Myc protein entry is “decreased” and the “cyclin D1 protein” value is reported as “decreased”. In the series on Daoy cells [3] (real-time PCR, both stable clones), the “expression of pro-neural bHLH (MASH1, MATH3, NGN2)” value is “increases in expression”. Besides, the “MAP2 mRNA expression” value in the series on Daoy cells [3] (real-time PCR, stable 199bSC1 and 199bMC1 clones) is given as “up-regulated”. For the same substance, the GFAP levels result in the series on Daoy cells [3] (real-time PCR, stable 199bSC1 clone) is “increased”. Moreover, in the series with Daoy cells [3] (real-time PCR, stable clones), the “GABRA6 mRNA expression” value is given as “significantly over-expressed”, the c-Myc expression result is recorded as “decreased” and the “cyclin D1 expression” value was “decreased”. The GSK3-β protein levels entry in the series on GSK3-β is “did not show any significant reductions”.
